Tested on: intestinal adenocarcinoma cells (lineage CACO-2)
Experiment: Proliferation inhibition in intestinal adenocarcinoma cells, lineage CACO-2
Type: cell-based
Details: cell lineage CACO-2
Procedure: Further research has recently been carried out using retinoic acid, sodium butyrate and the invention substances obtained as in Example 1. More specifically, tests were conducted on intestinal adenocarcinoma cells (lineages CACO-2 and HT-29) using isomers of molecular weight 256 - hereinafter referred to simply as "esters 256" - and using the compound of molecular weight 330 corresponding to formula IV, and mixtures mainly containing said compound - hereinafter referred to simply as "HHP" (hydroxy-hydro-phenanthrene). The results were as follows: • 1. The proliferation-inhibiting effect of HHP and butyrate on cell lineage CACO-2 is 80% as compared with 60% for retinoic acid. Inhibition in cell lineage HT-29 treated with HHP of 50µM concentration was 95% by the seventh day. • 2. […] HHP induces in the cell lineages a 3.5 times increase in the number of domes, indicating greater cell differentiation. • 6. […] In CACO-2, alpha 2,6, xyalyl transferase increases 3 times with respect to the control after two weeks' treatment with HHP.

CCCC(=O)[O-].[Na+] [butyrate, sodium butyrate, reference compound]
proliferation-inhibiting effect: 80%

CC1=C(/C=C/C(C)=C/C=C/C(C)=C/C(=O)O)C(C)(C)CCC1 [retinoic acid, reference compound]
proliferation-inhibiting effect: 60%
